Reference: patent US6803368B2, “Antipsychotic aminomethyl derivatives of 7,8-dihydro-3H-6,9-dioxa-1,3-diaza-cyclopenta[a]naphthalene” (Wyeth, priority 2001, dated 2004)

Biological target: T1, dopamine D2 receptor (Rattus norvegicus, UniProt P61169)
T1 construct: from tissue; host or cells: rat striatal brain tissue homogenate
Assay: Dopamine D2 receptor affinity, 3H-quinpirole binding in homogenized rat striatal brain tissue
Protocol: Affinity for the dopamine D2 receptor was established by a modification of the standard experimental test procedure of Seemen and Schaus, European Journal of Pharmacology 203: 105-109, 1991, wherein homogenized rat striatal brain tissue is incubated with ^3H-quinpirole and various concentrations of test compound, filtered and washed and counted in a Betaplate scintillation counter.

T1 sequence (P61169 whole entry): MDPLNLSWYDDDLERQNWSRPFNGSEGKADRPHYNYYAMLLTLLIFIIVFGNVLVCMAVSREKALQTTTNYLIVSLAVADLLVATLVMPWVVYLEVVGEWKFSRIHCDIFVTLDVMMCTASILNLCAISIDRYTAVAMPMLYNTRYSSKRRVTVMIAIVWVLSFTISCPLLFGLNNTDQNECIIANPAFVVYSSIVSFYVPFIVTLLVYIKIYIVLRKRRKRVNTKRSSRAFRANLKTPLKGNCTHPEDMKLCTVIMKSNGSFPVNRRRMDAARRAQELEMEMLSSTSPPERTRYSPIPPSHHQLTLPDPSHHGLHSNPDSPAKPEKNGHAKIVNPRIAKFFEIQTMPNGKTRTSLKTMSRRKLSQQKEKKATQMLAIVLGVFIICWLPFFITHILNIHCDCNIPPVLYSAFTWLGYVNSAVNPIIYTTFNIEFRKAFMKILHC

Row | Molecule | IC50
1 | FC(F)(F)c1nc2c3c(ccc2[nH]1)OC[C@H](CNCCCCc1ccccc1)O3 [Example 2, (4-Phenyl-butyl)-(2-trifluoromethyl-7,8-dihydro-3H-6,9-dioxa-1,3-diaza-cyclopenta[a]naphthalen-8-ylmethyl)-amine] | 0.4 nM
2 | FC(F)(F)c1nc2c3c(ccc2[nH]1)OCC(CNCc1ccccc1)O3 (stereo not drawn) [Example 3, Benzyl-(2-trifluoromethyl-7,8-dihydro-3H-6,9-dioxa-1,3-diaza-cyclopenta[a]naphthalen-8-ylmethyl)-amine] | 2.2 nM
3 | (2-Trifluoromethyl-7,8-dihydro-3H-6,9-dioxa-1,3-diaza-cyclopenta[a]naphthalen-8-yl)-methylamine [Example 1] | 260 nM
